Read-outs that look alike come from different tables or passages of the source.
Assays:
[1] = system: progressive multiple sclerosis patients; details: 500 mg intravenously every six months; cited from earlier work
[2] = system: antibodies to MBP; details: in vitro and in vivo (in blood of MS-patients); cited from earlier work
[3] = system: ESAMBPCAA; assay: ESAMBPCAA mediated MBP hydrolysis in serum samples of progressive MS patients in presence of test substances; assay type: biochemical, human; details: for suppressive effect on MBP-specific auto antibody mediated hydrolysis: 100 nM, summary of Table 3; for MBP-specific auto antibody mediated hydrolysis: test substance 100 nM
Experimental: (§1) MBP hydrolysis by anti MBP auto antibodies was assayed as follows: Purified antibodies (0.1-1 μg) were incubated at 37° C. for 14 h in the final volume of 12.5 μl PBS, 0.02% NaN3 containing 1-2 μg of MBP. The samples were mixed with Laemmli's buffer. The extent of MBP degradation was visualized by SDS-PAGE in Tris-glycine and Tricine buffer systems. For quantitative MBP degradation assay, MBP (10 μM) was incubated at 37° C. with antibodies (60 nM) in 0.1 ml of PBS, 0.02% NaN3 for 12 h. The reaction was stopped by adding 10% TFA up to pH 2.5. The samples were further chromatographed on column C4 4.0/150 (Waters). The amount of non-cleaved MBP was calculated by absorbance monitoring at 280 nm.
Serum samples collected from 5 patients suffering from progressive MS were quantified for ESAMBPCAA mediated MBP hydrolysis as specified in Example 1 in presence of following substances: […]

[4] = system: ESAMBPCAA; assay: ESAMBPCAA mediated MBP hydrolysis in serum of treated EAE DA rats; assay type: in vivo; details: days 8-12; for rates of MBP-specific auto antibody mediated hydrolysis: 120 μg daily intranasal, median for 6 animals; for suppression of MBP-specific auto antibody mediated hydrolysis: intranasal, dose-dependent for SEQ ID NO: 2
[5] = system: Experimental Allergic Encephalomyelitis (EAE) in DA rats; assay: MDS score in EAE DA rats; assay type: in vivo; details: intranasal, days 8-12; FIG. 4; dose-dependent for SEQ ID NO: 2
[6] = system: Experimental MS (Theiler's Virus Infection) in SJL mice; assay: Experimental MS (Theiler's Virus Infection): disease manifestation and MDS score; assay type: in vivo; details: days 14-24; for % Animals affected with disease at day 100: 30 mice per group
Experimental: (§2) The BeAn strain of TMEV used in this study was generated and propagated in BHK-21 cells grown in Dulbecco's modified Eagle's medium supplemented with 7.5% donor calf serum. For i.c. infection, 30 μl of virus solution (0.2×10^6 to 6×10^6 PFU) was injected into the right cerebral hemisphere of 6- to 8-week-old SJL mice (8 animals per group) anesthetized with isoflurane. Clinical symptoms (MDS score) of disease were assessed weekly on the following grading scale: grade 0, no clinical signs; grade 1, mild waddling gait or flaccid tail; grade 2, severe waddling gait; grade 3, moderate hind limb paresis; and grade 4, severe hind limb paralysis. Serum samples collected from animals were quantified for ESAMBPCAA mediated MBP hydrolysis as specified in Example 1
(§3) At day 14 following infection mice were divided into 6 groups ([…]) and treated during 10 days (days 14-24) according following schedule: […]

[7] = system: relapsing-remitting multiple sclerosis patients; details: Neurology 1995; 45: 1268; cited from earlier work
[8] = system: ESAMBPCAA; assay: ESAMBPCAA mediated MBP hydrolysis in serum of treated TMEV-infected SJL mice; assay type: in vivo; details: days 14-24
Experimental: as §1, §2, §3

[9] = system: Experimental Allergic Encephalomyelitis (EAE) in Dark Agouti (DA) Rats; assay: EAE induced by MBP 63-81 in DA rats: clinical signs score; assay type: in vivo; details: for Clinical signs score on day 23 after induction (mean): 150 μg/rat/day SC during 6 days from day 9-11 after EAE induction, score 0-5; for therapeutic effect: 150 μg/rat/day SC during 6 days
Experimental: Female Dark Agouti (DA) Rats, 8-9 weeks of age, about 110-145 g of weight were used as test animals.
For induction of Experimental Allergic Encephalomyelitis (EAE), rats were injected intradermally at the base of the tail with a total volume of 200 μl of inoculum containing 50 μg of MBP 63-81 (ANASPEC), in saline mixed (1:1) with Complete Freund Adjuvant, (IFA, Sigma), and 1 mg killed M. tuberculosis strain (strain H37 RA; Difco Laboratories, Detroit, Mich.). Beginning 24 hours after EAE induction the rats were followed up daily. On day 9 after the after EAE induction more than 50% of the rats developed signs of paralysis. The animals with multiple sclerosis signs were separated into 10 groups for beginning of treatment. Prior to treatment, blood was collected from 2 rats from each group. At day 9 and 11 after EAE induction, 90% of rats developed signs of EAE.
9-11 days after EAE induction the animals were divided into 9 groups (5-6 rats in each). Each group of rats was treated subcutaneously once daily with different claimed oligopeptide or theirs combinations (equimolar mix) (150 μg) or doses of positive control item (Glatiramer acetate, Copaxone, Teva) or negative control item (0.9% Sodium chloride solution), during 6 days as follows:
Copaxone, claimed oligopeptide and combinations thereof (Mechanical mix) were diluted with 0.9% Sodium chloride to a concentration of 450 μg/ml. Volume of 0.33 ml (150 μg/rat/day) was injected SC during 6 days.
After 6 days of the injections cycle the animals were maintained and followed up till day 28th post EAE induction. Clinical signs score was performed daily during study periods. Animals were observed individually during all study periods. In cases of extended observation period clinical signs were recorded once daily. Observations included changes in the fur, eyes, respiratory rate, vocalization, paralysis, activity and behavior pattern. Score of paralysis signs related to MS of each animal was done daily (during all study periods).
Score gradation was as follows: 0—Normal; 1—Tail weakness; 2—Hind leg weakness or paralysis; 3—Hind leg paralysis, dragging hind limbs; 4—Complete paralysis, unable to move; 5—Death.

[10] = system: secondary progressive MS patients; details: phase I; cited from earlier work
[11] = system: CD20+ B lymphocytes; details: relapsing-remitting multiple sclerosis (RRMS) patients; cited from earlier work
[12] = system: relapsing-remitting multiple sclerosis patients; details: Neurology 1993; 43: 662-7; cited from earlier work
[13] = 20 μg of each oligopeptide daily subcutaneous

In the case of “DENPVVHFFKNIVTPRT [MBP8298, synthetic peptide, amino acid residues 82-98 of MBP]”, the “responders on the treatment” value [1] is given as “responders on the treatment with MBP8298 are the patients with HLA heliotypes DR2 and/or DR4 only”.

In the case of “MBP 35-58: non-binding, control peptide, human MBP 35-58 (LSRTTSEDNEVFGEADANQNNGTS; UniProt P02686 35-58, looked up, fragment)”, the “effect on free and bound antibodies to MBP” value [2] is listed as “no effect”.

For APKRGSGKDSH [A4], the “suppressive effect on MBP-specific auto antibody mediated hydrolysis” value [3] was “potent suppressive effect”, the “MBP-specific auto antibody mediated hydrolysis” value ([3]; Patient 1) was 12.1 ± 3.6 pmol/min/nmol and the “MBP-specific auto antibody mediated hydrolysis” value ([3]; Patient 2) was 15.6 ± 2.9 pmol/min/nmol. The “MBP-specific auto antibody mediated hydrolysis” value ([3]; Patient 3) was 14.3 ± 4.4 pmol/min/nmol, the “MBP-specific auto antibody mediated hydrolysis” value ([3]; Patient 4) was 15.8 ± 4.9 pmol/min/nmol and the “MBP-specific auto antibody mediated hydrolysis” value ([3]; Patient 5) was 13.3 ± 5.9 pmol/min/nmol. For the same molecule, the “rates of MBP-specific auto antibody mediated hydrolysis” value (from here on “rates”) ([4]; Day 8 (start of treatment)) was 49.3 ± 4.9 pmol/min/nmol, the “rates” value ([4]; Day 16) was 45.9 ± 7.1 pmol/min/nmol and the “rates” value ([4]; Day 24) was 45.1 ± 6.3 pmol/min/nmol. The “suppression of MBP-specific auto antibody mediated hydrolysis” value [4] was “active in suppression” and the “suppression of MDS score” value [5] was “active in suppression”.

With SGKDS [A5] the “MBP-specific auto antibody mediated hydrolysis” value ([3]; Patient 1) was 57 ± 4.1 pmol/min/nmol, the “MBP-specific auto antibody mediated hydrolysis” value ([3]; Patient 2) was 59.7 ± 5.7 pmol/min/nmol and the “MBP-specific auto antibody mediated hydrolysis” value ([3]; Patient 3) was 44.2 ± 6.6 pmol/min/nmol. The “MBP-specific auto antibody mediated hydrolysis” value ([3]; Patient 4) was 45.5 ± 3.8 pmol/min/nmol and the “MBP-specific auto antibody mediated hydrolysis” value ([3]; Patient 5) was 55.7 ± 6.1 pmol/min/nmol.

For “glatiramer acetate [A2, reference compound]”, the “MBP-specific auto antibody mediated hydrolysis” value ([3]; Patient 1) was 62.5 ± 1.2 pmol/min/nmol, the “MBP-specific auto antibody mediated hydrolysis” value ([3]; Patient 2) was 72.6 ± 7.7 pmol/min/nmol and the “MBP-specific auto antibody mediated hydrolysis” value ([3]; Patient 3) was 51.2 ± 3.5 pmol/min/nmol. The “MBP-specific auto antibody mediated hydrolysis” value ([3]; Patient 4) was 47.7 ± 7.9 pmol/min/nmol, the “MBP-specific auto antibody mediated hydrolysis” value ([3]; Patient 5) was 65.7 ± 5.4 pmol/min/nmol and the “% Animals affected with disease at day 100” value (“% Animals affected” below) ([6]; 30 μg daily subcutaneous) was 25(30) %. For the same molecule, the “Adverse Reactions” value [7] was “Low”, the “Clinical Observations: Decrease of relapse frequency” value [7] was “frequency—29%;” and the “Clinical Observations: EDSS score progression” value [7] was “Slowing EDSS”. The “MRI Data: decrease of active lesions” value [7] was “No statistical”, the “ESAMBPCAA activity at day 100” value ([8]; 30 μg daily subcutaneous) was 39.8 ± 4.1 pmol/min/nmol and the “rates” value ([4]; Day 8 (start of treatment)) was 51.4 ± 8.2 pmol/min/nmol. The “rates” value ([4]; Day 16) was 55.4 ± 5.7 pmol/min/nmol, the “rates” value ([4]; Day 24) was 62.2 ± 5.7 pmol/min/nmol and the “Clinical signs score on day 23 after induction (mean)” value (from here on “Clinical signs score”) [9] was 1.1.

For “MBP 84-102: MBP 84-102 fragment (U.S. Pat. No. 5,858,980) (DPGSRPHLIRLFSRDAPGR; UniProt P02686 84-102, looked up, fragment)”, the “treatment efficacy (Expanded Disability Status Scale, Nine Hole Peg Test, new lesions by Magnetic Resonance Imaging)” value [10] is listed as “No treatment efficacy were detected”.

For GFGYGGRASDYKSAHK [SEQ ID NO: 3], the therapeutic effect [6, 13] was “moderate therapeutic effect”, the “% Animals affected” value [6, 13] was 25(30) % and the “ESAMBPCAA activity at day 100” value [8, 13] was 40 ± 3.1 pmol/min/nmol. The “suppression of MBP-specific auto antibody mediated hydrolysis” value [8, 13] was “do not affect”, the therapeutic effect [9] was “moderate therapeutic effect” and the “Clinical signs score” value [9] was 0.9.

In the case of “MBP 75-95: soluble synthetic peptide, residues 75-95 of human MBP (WO 98/45327) (NAWQDAHPADPGSRPHLIRLF; UniProt P02686 75-95, looked up, fragment)”, the “effect on free and bound antibodies to MBP” value [2] is listed as “showed its ability to bound free antibodies to MBP both in vitro and in vivo”.

With QGTLSKIFKLGGRDSRSGSPMARR [SEQ ID NO: 4] the therapeutic effect [6, 13] was “moderate therapeutic effect”, the “% Animals affected” value [6, 13] was 27(30) % and the “ESAMBPCAA activity at day 100” value [8, 13] was 35.3 ± 5.1 pmol/min/nmol. The “suppression of MBP-specific auto antibody mediated hydrolysis” value [8, 13] was “do not affect”, the therapeutic effect [9] was “moderate therapeutic effect” and the “Clinical signs score” value [9] was 0.8.

For “rituximab: monoclonal antibody, which selectively targets and depletes CD20+ B lymphocytes”, the “safety and efficacy of therapy” value [11] is given as “appears safe and effective to some extend”.

With “RGAPKRGSGKRGAPKRGSGKRGAPKRGSGKRGAPKRGSGKRGAPKRGSGKRGAPKRGSGK [A6]” the “suppressive effect on MBP-specific auto antibody mediated hydrolysis” value [3] was “potent suppressive effect”, the “MBP-specific auto antibody mediated hydrolysis” value ([3]; Patient 1) was 7.7 ± 3.3 pmol/min/nmol and the “MBP-specific auto antibody mediated hydrolysis” value ([3]; Patient 2) was 22.3 ± 4.2 pmol/min/nmol. The “MBP-specific auto antibody mediated hydrolysis” value ([3]; Patient 3) was 20.1 ± 3.9 pmol/min/nmol, the “MBP-specific auto antibody mediated hydrolysis” value ([3]; Patient 4) was 21.5 ± 6.6 pmol/min/nmol and the “MBP-specific auto antibody mediated hydrolysis” value ([3]; Patient 5) was 5.0 ± 1.8 pmol/min/nmol. For the same molecule, the “rates” value ([4]; Day 8 (start of treatment)) was 45.7 ± 6.5 pmol/min/nmol, the “rates” value ([4]; Day 16) was 48.1 ± 7.4 pmol/min/nmol and the “rates” value ([4]; Day 24) was 39.4 ± 4.6 pmol/min/nmol. The “suppression of MBP-specific auto antibody mediated hydrolysis” value [4] was “active in suppression” and the “suppression of MDS score” value [5] was “active in suppression”.

B1: Beta-Interferon: Beta-Interferon, existing standard of MS therapy (protein, UniProt P01574 22-187, looked up, variant C17S)
Interferon beta: MSYNLLGFLQRSSNFQSQKLLWQLNGRLEYCLKDRMNFDIPEEIKQLQQFQKEDAALTIYEMLQNIFAIFRQDSSSTGWNETIVENLLANVYHQINHLKTVLEEKLEKEDFTRGKLMSSLHLKRYYGRILHYLKAKEYSHCAWTIVRVEILRNFYFINRLTGYLRN
modifications: interferon beta-1b, lacks N-terminal Met
notes: Beta-Interferon, existing standard of MS therapy
For B1, the “Adverse Reactions” value [12] is given as “High”, the “Clinical Observations: Decrease of relapse frequency” value [12] is given as “frequency—83%;” and the “Clinical Observations: EDSS score progression” value [12] is given as “No slowing EDSS”. For the same molecule, the “MRI Data: decrease of active lesions” value [12] was 83% decrease.

— US9896491B2, “Composition for treatment of multiple sclerosis” (LIFEBIO LABORATORIES LLC, priority 2009, dated 2018)
